Series [1] concerns the target T1, human AR (androgen receptor) (Homo sapiens, UniProt P10275).
T1 construct: expressed in transfected cells; host or cells: 293 cells (293-AR lysate)
T1 sequence (P10275 1-920): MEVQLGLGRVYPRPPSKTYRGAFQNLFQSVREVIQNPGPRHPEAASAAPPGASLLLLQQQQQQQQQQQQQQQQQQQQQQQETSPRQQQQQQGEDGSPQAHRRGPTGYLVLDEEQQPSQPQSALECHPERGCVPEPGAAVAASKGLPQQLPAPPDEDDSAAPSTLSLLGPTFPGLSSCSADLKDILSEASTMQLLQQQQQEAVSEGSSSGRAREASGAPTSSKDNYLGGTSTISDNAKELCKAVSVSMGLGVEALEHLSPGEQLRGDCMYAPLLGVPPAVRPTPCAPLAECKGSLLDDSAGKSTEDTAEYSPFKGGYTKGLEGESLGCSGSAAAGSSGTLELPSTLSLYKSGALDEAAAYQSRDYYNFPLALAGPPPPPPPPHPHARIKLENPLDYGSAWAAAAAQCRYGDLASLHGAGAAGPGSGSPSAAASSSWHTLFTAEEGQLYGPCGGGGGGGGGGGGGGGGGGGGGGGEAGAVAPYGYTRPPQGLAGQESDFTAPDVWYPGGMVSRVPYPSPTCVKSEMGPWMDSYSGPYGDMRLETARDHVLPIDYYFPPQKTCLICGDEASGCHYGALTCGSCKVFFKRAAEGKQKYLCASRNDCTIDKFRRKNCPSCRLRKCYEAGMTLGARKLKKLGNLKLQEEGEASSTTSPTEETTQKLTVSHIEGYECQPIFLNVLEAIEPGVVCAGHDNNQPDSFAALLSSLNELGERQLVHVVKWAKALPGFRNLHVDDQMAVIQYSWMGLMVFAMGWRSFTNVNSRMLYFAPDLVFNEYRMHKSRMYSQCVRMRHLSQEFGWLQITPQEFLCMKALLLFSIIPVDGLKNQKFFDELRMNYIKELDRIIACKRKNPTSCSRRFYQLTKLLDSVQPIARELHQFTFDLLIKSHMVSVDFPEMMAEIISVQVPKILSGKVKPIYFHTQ
Kind of series: Steroid hormone nuclear receptor binding assay, AR binding. In outline: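 Competition binding with lysates of 293 cells overexpressing human AR, [3H]-methyltrienolone tracer, compounds from about 0.01 nM to 10 μM, overnight at 4 °C; non-specific binding set with 500 nM methyltrienolone. Bound tracer counted by scintillation after charcoal-dextran separation; IC50 converted to Ki by Cheng-Prusoff using Kd from saturation binding.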

The target of series [2] is T2, human androgen receptor (AR) (Homo sapiens, UniProt P10275).
T2 construct: expressed in transfected cells; host or cells: mouse myoblast C2C12 cells, transiently co-transfected
T2 sequence (P10275 1-920): T1 sequence (P10275 1-920)
Kind of series: C2C12 AR/ARE reporter assay. Format: cell-based. In outline: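 Mouse C2C12 myoblasts co-transfected with AR/ARE reporter were plated in charcoal-stripped serum and treated for 48 h with compound from about 0.01 nM to 10 μM. Luciferase activity gave EC50 by 4-parameter logistic fit. Efficacy is expressed as % of maximal stimulation by 10 nM methyltrienolone.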

Where [3] appears, read: C2C12, read-out: C2C12 % Efficacy.
[4] abbreviates: average of n trials, read-out: AR binding Ki.
The mark [5] stands for this setting: C2C12 AR/ARE reporter assay, average of n trials, read-out: C2C12 % Efficacy.
Where [6] appears, read: C2C12 AR/ARE reporter assay, average of n trials, read-out: C2C12 EC50.

Read-outs that look alike come from different tables or passages of the source.

Usually Ki stands for a measure of affinity in units of concentration, obtained from inhibition or displacement. By melting point is commonly meant the temperature of the solid-liquid transition. As a reminder, the EC50 is the concentration needed to bring the measured effect to its halfway point.

`Cc1ccc2c(c1)c1c(n2Cc2ccccc2C#N)CCC(NC(=O)C(C)C)C1` (stereo not shown) [Example 46] returned a melting point of 218 to 220 °C. Moreover, the Ki in series [1] is 137 nM. For the same molecule, in series [2] (setting [3]), the Emax is 40.5%.

`Cc1ccc2c(c1)c1c(n2Cc2cccc(Cl)c2)CCC(NC(=O)C(C)C)C1` (stereo not shown) [Example 48] yielded a melting point of 190 to 192 °C. In series [1], this molecule had a Ki of 9.4 nM. This molecule had an EC50 in series [2] of 116 nM. In addition, in series [2] (setting [3]), the Emax was determined as 69.5%.

Molecule `Cc1ccc2c(c1)c1c(n2Cc2cccc(C#N)c2)CCC(NC(=O)C(C)C)C1` (stereo not shown) [Example 50] had a melting point of 209 to 211 °C. In addition, in series [1], the affinity corresponds to a Ki of 150 nM. The same molecule came in with an EC50 in series [2] of 940 nM. The Emax in series [2] (setting [3]) was found to be 45.8%.

In the case of `CCOC(=O)c1ccc2c(c1)c1c(n2Cc2cccc(F)c2)CCC(NC(=O)C(C)C)C1` (stereo not shown) [Example 52], the melting point is 226 to 228 °C. Affinity in series [1] was put at a Ki of 6.1 nM. For the same molecule, in series [2], the EC50 was found to be 5.6 nM. Moreover, the Emax in series [2] (setting [3]) came out at 73.2%.

`CC(C)C(=O)NC1CCc2c(c3cc(S(C)(=O)=O)ccc3n2Cc2cccc(F)c2)C1` (stereo not shown) [Example 53] registered a melting point of 205 to 207 °C. In series [1], this molecule came in with an inhibition constant Ki of 21.6 nM. For the same molecule, the response in series [2] was half-maximal at 24.3 nM (EC50). In addition, the Emax in series [2] (setting [3]) was determined as 107%.

In turn, `CC(C)C(=O)NC1CCc2c(c3cc(C(F)(F)F)ccc3n2Cc2cccc(F)c2)C1` (stereo not shown) [Example 55] showed a melting point of 131 to 138 °C. The molecule further had a Ki in series [1] of 11.2 nM. In series [2], this molecule displayed a concentration giving a half-maximal response (EC50) of 2.5 nM. Also, the Emax in series [2] (setting [3]) was determined as 82.9%.

In turn, `CC(C)C(=O)NC1CCc2c(c3cccc(Cl)c3n2Cc2cccc(F)c2)C1` (stereo not shown) [Example 57] yielded a melting point of 205 to 207 °C. This molecule also showed a Ki in series [1] of 25.1 nM. In addition, in series [2], it took 323 nM to reach a half-maximal effect (EC50). The Emax in series [2] (setting [3]) worked out at 36.5%.

Molecule `COc1cc2c3c(n(Cc4cccc(F)c4)c2cc1Cl)CCC(NC(=O)C(C)C)C3` (stereo not shown) [Example 59] yielded a melting point of 212 to 215 °C. The molecule also displayed an inhibition constant (Ki) in series [1] of 59 nM. This molecule yielded a half-maximal effective concentration (EC50) in series [2] of 242 nM. Besides, the Emax in series [2] (setting [3]) came out at 39.5%.

As to `Cc1cccc2c3c(n(Cc4cccc(F)c4)c12)CCC(NC(=O)C(C)C)C3` (stereo not shown) [Example 60], the melting point lay in the range of 188 to 191 °C. In addition, in series [1], the Ki turned out to be 35.9 nM. The molecule further yielded an EC50 in series [2] of 299 nM. In addition, the Emax in series [2] (setting [3]) is 74.2%.

Take `CC(C)C(=O)NC1CCc2c(c3cc(C(N)=O)ccc3n2Cc2cccc(F)c2)C1` (stereo not shown) [Example 63, 9-(3-Fluorobenzyl)-6-isobutyrylamino-6,7,8,9-tetrahydro-5H-carbazole-3-carboxylic acid amide]: the melting point was in the range of 192 to 194 °C. The same molecule gave a Ki in series [1] of 39.3 nM. In series [2], it took 66.9 nM to reach a half-maximal effect (EC50). Besides, the Emax in series [2] (setting [3]) was 113%.

`COc1ccc2c(c1)c1c(n2Cc2ccccc2)CCC(NC(C)=O)C1` (stereo not shown) [Example 65, N-(9-Benzyl-6-methoxy-2,3-4,9-tetrahydro-1H-carbazol-3-yl)-acetamide] came in with a melting point of 184 to 185 °C. Besides, the Ki in series [1] (setting [4]) was 58.4 nM. The Emax in series [2] (setting [5]) came to 87.3%. The 50% effective concentration (EC50) in series [2] (setting [6]) worked out at 40.5 nM.

In the case of `CC(C)C(=O)NC1CCc2c(c3cc(C#N)ccc3n2Cc2ccccc2C(F)(F)F)C1` (stereo not shown) [Example 96, N-[6-Cyano-9-(2-trifluoromethyl-benzyl)-2,3,4,9-tetrahydro-1H-carbazol-3-yl]-isobutyramide], the melting point lay in the range of 222 to 225 °C. The same molecule displayed an inhibition constant (Ki) in series [1] of 14.7 nM. In series [2], the EC50 was found to be 123 nM. For the same molecule, in series [2] (setting [3]), the Emax was determined as 88%.

In the case of `CC(C)C(=O)NC1CCc2c(c3cc(C#N)ccc3n2Cc2ccccc2OC(F)F)C1` (stereo not shown) [Example 97, N-[6-Cyano-9-(2-difluoromethoxy-benzyl)-2,3,4,9-tetrahydro-1H-carbazol-3-yl]-isobutyramide], the melting point was 217 to 219 °C. Moreover, the Ki in series [1] worked out at 4.6 nM. The molecule further returned an EC50 in series [2] of 32.8 nM. In addition, the Emax in series [2] (setting [3]) stood at 102%.

`CC(C)C(=O)NC1CCc2c(c3cc4c(cc3n2Cc2cccc(F)c2)OCO4)C1` (stereo not shown) [Example 98, N-[9-(3-Fluoro-benzyl)-6,7,8,9-tetrahydro-5H-1,3-dioxa-9-aza-cyclopenta[b]fluoren-6-yl]-isobutyramide] came in with a melting point of 250 to 255 °C. In series [1], this molecule came in with a Ki of 7 nM. The EC50 in series [2] was found to be 40.8 nM. Further, the Emax in series [2] (setting [3]) stood at 104%.

Take `CC(C)C(=O)NC1CCc2c(c3cc4c(cc3n2Cc2cccc(F)c2)OC(F)(F)O4)C1` (stereo not shown) [Example 99, N-[2,2-Difluoro-9-(3-fluoro-benzyl)-6,7,8,9-tetrahydro-5H-1,3-dioxa-9-aza-cyclopenta[b]fluoren-6-yl]-isobutyramide]: the melting point was 197 to 199 °C. Affinity in series [1] was put at a Ki of 6.2 nM. Moreover, the half-maximal effective concentration (EC50) in series [2] was 9.4 nM. In series [2] (setting [3]), the Emax was 69%.

`CC(C)C(=O)NC1CCc2c(c3cc(C#N)ccc3n2Cc2ccccc2OC(F)(F)F)C1` (stereo not shown) [Example 100, N-[6-Cyano-9-(2-trifluoromethoxy-benzyl)-2,3,4,9-tetrahydro-1H-carbazol-3-yl]-isobutyramide] came in with a melting point of 224 to 225 °C. In series [1], this molecule came in with a Ki of 8 nM. Further, the concentration for a half-maximal effect (EC50) in series [2] stood at 126 nM. Moreover, the Emax in series [2] (setting [3]) is 87.6%.

`CC(C)C(=O)N[C@H]1CCc2c(c3cc(C#N)ccc3n2Cc2cccc(F)c2)C1` [Example 124, (S)-N-(6-Cyano-9-(3-fluorobenzyl)-2,3,4,9-tetrahydro-1H-carbazol-3-yl)isobutyramide]: the melting point lay in the range of 223 to 225 °C. In series [1], this molecule registered an inhibitory constant (Ki) of 195 nM. Also, the half-maximal effective concentration (EC50) in series [2] came out at 1110 nM. Also, the Emax in series [2] (setting [3]) worked out at 49.9%.

The molecule `CC(C)C(=O)NC1CCc2c(c3cc(-c4nnc(N)s4)ccc3n2Cc2cccc(F)c2)C1` (stereo not shown) [Example 125, N-[6-(5-Amino[1,3,4]thiadiazol-2-yl)-9-(3-fluorobenzyl)-2,3,4,9-tetrahydro-1H-carbazol-3-yl]isobutyramide] displayed a melting point of 251 to 254 °C. Further, the Ki in series [1] is 55.1 nM. For the same molecule, in series [2], the EC50 came to 68.5 nM. For the same molecule, the Emax in series [2] (setting [3]) was 75.8%.

`CC(C)C(=O)NC1CCc2c(c3cc(-c4nccs4)ccc3n2Cc2cccc(F)c2)C1` (stereo not shown) [Example 130, N-[9-(3-Fluorobenzyl)-6-thiazol-2-yl-2,3,4,9-tetrahydro-1H-carbazol-3-yl]isobutyramide] yielded a melting point of 221 to 225 °C. Further, the Ki in series [1] is 13.6 nM. Further, in series [2], a half-maximal effect (EC50) was put at 5 nM. Moreover, the Emax in series [2] (setting [3]) was found to be 85.6%.

`CC(C)C(=O)NC1CCc2c(c3cc(-c4ccccn4)ccc3n2Cc2cccc(F)c2)C1` (stereo not shown) [Example 131, N-[9-(3-Fluorobenzyl)-6-pyridin-2-yl-2,3,4,9-tetrahydro-1H-carbazol-3-yl]isobutyramide] gave a melting point of 228 to 230 °C. The affinity in series [1] corresponds to a Ki of 118 nM. Further, in series [2], the EC50 amounted to 65.2 nM. Moreover, the Emax in series [2] (setting [3]) is 91.3%.

As for `CC(C)C(=O)NC1CCc2c(c3cc(C#N)ccc3n2Cc2ccc(F)cn2)C1` (stereo not shown) [Example 181, N-[6-Cyano-9-(5-fluoro-pyridin-2-ylmethyl)-2,3,4,9-tetrahydro-1H-carbazol-3-yl]-isobutyramide], the melting point was 235 to 238 °C (dec.). This molecule also showed a Ki in series [1] of 34.6 nM. In series [2], this molecule gave an EC50 of 87.8 nM. The Emax in series [2] (setting [3]) was 93.5%.

In turn, `CC(C)C(=O)NC1CCc2c(c3cc(C#N)ccc3n2Cc2ncccc2F)C1` (stereo not shown) [Example 182, N-[6-Cyano-9-(3-fluoro-pyridin-2-ylmethyl)-2,3,4,9-tetrahydro-1H-carbazol-3-yl]-isobutyramide] displayed a melting point of 213 to 216 °C. In series [1], the Ki stood at 28.4 nM. In series [2], this molecule returned a concentration giving a half-maximal response (EC50) of 151 nM. Besides, in series [2] (setting [3]), the Emax was determined as 88.7%.

`CCOC(=O)Nc1ccc2c(c1)c1c(n2Cc2cccc(F)c2)CC[C@@H](NC(=O)C(C)C)C1` [Example 189, (R)-[9-(3-Fluoro-benzyl)-6-isobutyrylamino-6,7,8,9-tetrahydro-5H-carbazol-3-yl]-carbamic acid ethyl ester] had a melting point of 169 to 171 °C. The Ki in series [1] (setting [4]) is 8.3 nM. Also, the Emax in series [2] (setting [5]) is 52.9%. Moreover, the EC50 in series [2] (setting [6]) is 1.2 nM.
